Experimental data taken from patent US5705518A, “Method of activating photosensitive agents” (University of British Columbia, priority 1995, dated 1998).
Where two headings read alike, the source gives them in different places.

What was measured:
[1] = mouse, in vivo, iv; cited from earlier work
[2] = test system: M-1 (murine rhabdomyosarcoma) tumor; experiment: Pilot study of shorter post injection intervals: PDT of M-1 tumor-bearing mice, light 15 min after liposomal BPD-MA; format: in vivo, DBA/2 mice; conditions: light 15 min post injection
Protocol: Liposomal BPD was dried and stored frozen at -20° C. in 1 ml aliquots. The appropriate number of aliquots were thawed immediately before use and diluted with 5% dextrose in water for injection into the animals.
Male DBA/2 mice (7-11 weeks old; Charles River Laboratories, St. Constant, Quebec, Canada) were used in these studies, unless otherwise specified. Shaving and depilation removed the hair very effectively from appropriate body surfaces. The mice were shaved and depilated with a commercially available depilator (Nair®) at least one day before being used in the experiments. Following injection the mice were kept in the dark for various lengths of time, as described below. Before and after the experiments the mice were kept in an animal facility with 12 hours of light and 12 hours of dark daily.
An argon pumped dye laser, whose power source was obtained from Spectra Physics (Series 2000, Mountain View, Calif.) and whose 5W argon ion pumped dye laser was obtained from Coherent (Model 599, Palo Alto, Calif.) was used to deliver a columnated beam of light having a wavelength of 690 (±3) nm. The argon laser was aimed at the skin to irradiate the tumor. The time of light exposure was varied to give different light doses, such as 50, 75 and 100 Joules/cm^2.
DBA/2 mice (weight 22±1 g) were used in this study. […]

[3] = test system: M-1 tumor cells; experiment: Dose ranging study: drug dose, light dose and post injection interval, M-1 tumor-bearing mice; format: in vivo, DBA/2 mice
[4] = test system: M-1 tumor; experiment: Anti-tumor efficacy BPD-MA dose-response study (FIG. 4); format: in vivo, mice; conditions: 2.0 mg/kg (only group of 0.5, 1.0, 1.5, 2.0 mg/kg); 150 J/cm^2; three hours post injection
Protocol: FIG. 4 illustrates an anti-tumor efficacy dose-response study for BPD-MA, liposomal formulation. […] Light exposure took place three hours after injection.
For comparison, FIGS. 4 and 5 are provided. FIG. 4 summarizes results of a test involving the same mouse-tumor model, in which four different BPD-MA doses were given (0.5, 1.0, 1.5, and 2.0 mg/kg). Light exposure was 150 J/cm^2, administered after a post injection interval of three hours of darkness. Under this regimen, which is similar to current clinical regimens, the only group that was over 50% tumor free at 14 days was that group of mice receiving 2.0 mg/kg.

[5] = test system: M-1 tumor; experiment: Light dose-response study at 690 nm (FIG. 5); format: in vivo, mice; conditions: 2 mg/kg BPD-MA, three hours post injection
Protocol: FIG. 5 illustrates a light dose-response study at 690 nm and with a BPD-MA dose of 2 mg/kg. […] Light exposure took place three hours after the injection of 2 mg/kg BPD-MA.
FIG. 5 summarizes results of a test involving the same mouse-tumor model, in which five different light exposures (50, 75, 100, 125 and 150 J/cm^2) were used three hours post injection with 2 mg/kg BPD-MA. Under this regimen, which is similar to current clinical regimens, 75% of the mice receiving 150 J/cm^2 and 50% of the mice receiving 125 J/cm^2 were tumor free at 14 days.

[6] = mouse, in vivo, iv, cited from earlier work
[7] = test system: M-1 tumor; experiment: Comparison PDT with light three hours post injection (FIG. 3), M-1 tumor mouse; conditions: 2.0 mg/kg BPD-MA, 100 J/cm^2, 4 days (FIG. 3)
[8] = human, in vivo; cited from earlier work
[9] = test system: bladder cancer; conditions: human, in vivo, cited from earlier work
[10] = test system: subcutaneous rat gliosarcomas; conditions: in vivo; cited from earlier work
[11] = 0.5 mg/kg, 50 J/cm^2, 30 min post injection, 2 mice, interim
[12] = 0.5 mg/kg, 75 J/cm^2, 15 min post injection, 2 mice, interim
[13] = 0.5 mg/kg, 100 J/cm^2, 15 min post injection, 5 mice, interim
[14] = 1.0 mg/kg, 50 J/cm^2, 15 min post injection, 4 mice, interim
[15] = 1.0 mg/kg, 50 J/cm^2, 30 min post injection, 5 mice, interim
[16] = 1.0 mg/kg, 75 J/cm^2, 15 min post injection, 5 mice, interim
[17] = 1.0 mg/kg, 100 J/cm^2, 15 min post injection, 4 mice, interim

**Q.** For C=Cc1c(C)c2cc3nc(cc4[nH]c(cc5nc(cc1[nH]2)C1(C)C5=CC=C(C(=O)OC)C1C(=O)OC)c(C)c4CCC(=O)O)C(CCC(=O)OC)=C3C (stereo not drawn) [BPD-MB], which Tumor-skin ratios [1] is on record?
**A.** favorable

**Q.** Which survival of mouse ([2]; 0.5 mg/kg BPD-MA, 75 J/cm^2, 24 hours (FIG. 2)) does the source give for “benzoporphyrin derivative monoacid ring A [BPD-MA]” here?
**A.** alive

**Q.** What about the survival of mouse ([2]; 1 mg/kg BPD-MA, 100 J/cm^2, 48 hours (FIG. 1)) of the same compound?
**A.** alive

**Q.** And the “mice that developed tumors” value ([3]; 0.5 mg/kg BPD-MA, 50 J/cm^2, 30 minutes post injection)?
**A.** all mice developed tumors

**Q.** What about the “tumor free at day 7” value ([3]; 0.5 mg/kg BPD-MA, 100 J/cm^2, 15 minutes post injection, day 7, five mice) of the same compound?
**A.** all were tumor free at day 7

**Q.** What about the “mice that developed tumors by day 14” value ([3]; 0.5 mg/kg BPD-MA, 100 J/cm^2, 15 minutes post injection, day 14) of the same compound?
**A.** Three of five mice

**Q.** And the “# Tumor-Free, Day 7” value ([3]; 0.5 mg/kg, 50 J/cm^2, 1 min post injection, 3 mice, interim)?
**A.** 3 mice

**Q.** And the “# Tumor-Free, Day 7” value ([3]; 0.5 mg/kg, 50 J/cm^2, 15 min post injection, 2 mice, interim)?
**A.** 2 mice

**Q.** And the “# Tumor-Free, Day 7” value [3, 11]?
**A.** 0 mice

**Q.** What about the “# Tumor-Free, Day 14” value [3, 11] of the same compound?
**A.** 0 mice

**Q.** And the “# Tumor-Free, Day 7 column (observations on Day 2 post exposure)” value ([3]; 0.5 mg/kg, 75 J/cm^2, 1 min post injection, 2 mice, observed Day 2, interim)?
**A.** 2 mice

**Q.** What about the “# Tumor-Free, Day 7” value [3, 12] of the same compound?
**A.** 2 mice

**Q.** What about the “# Tumor-Free, Day 14” value [3, 12] of the same compound?
**A.** 2 mice

**Q.** What about the “# Tumor-Free, Day 7” value ([3]; 0.5 mg/kg, 100 J/cm^2, 1 min post injection, 3 mice, interim) of the same compound?
**A.** 3 mice

**Q.** And the “# Tumor-Free, Day 7” value [3, 13]?
**A.** 5 mice

**Q.** And the “# Tumor-Free, Day 14” value [3, 13]?
**A.** 2 mice

**Q.** And the “# Tumor-Free, Day 7” value ([3]; 0.5 mg/kg, 100 J/cm^2, 30 min post injection, 2 mice, interim)?
**A.** 2 mice

**Q.** And the “# Tumor-Free, Day 7” value ([3]; 1.0 mg/kg, 50 J/cm^2, 1 min post injection, 4 mice, interim)?
**A.** 4 mice

**Q.** And the “# Tumor-Free, Day 7” value [3, 14]?
**A.** 4 mice

**Q.** What about the “# Tumor-Free, Day 14” value [3, 14] of the same compound?
**A.** 4 mice

**Q.** And the “# Tumor-Free, Day 7” value [3, 15]?
**A.** 4 mice

**Q.** What about the “# Tumor-Free, Day 14” value [3, 15] of the same compound?
**A.** 4 mice

**Q.** What about the “# Tumor-Free, Day 7” value [3, 16] of the same compound?
**A.** 5 mice

**Q.** And the “# Tumor-Free, Day 14” value [3, 16]?
**A.** 4 mice

**Q.** What about the “# Tumor-Free, Day 7” value ([3]; 1.0 mg/kg, 75 J/cm^2, 30 min post injection, 5 mice, interim) of the same compound?
**A.** 4 mice

**Q.** What about the “# Tumor-Free, Day 7” value [3, 17] of the same compound?
**A.** 4 mice

**Q.** What about the “# Tumor-Free, Day 14” value [3, 17] of the same compound?
**A.** 4 mice

**Q.** What about the “tumor free, animals followed to day 14” value ([3]; all regimens of Table 1, day 14, interim) of the same compound?
**A.** most are tumor free

**Q.** And the “tumor free at 14 days” value [4]?
**A.** over 50%

**Q.** And the “tumor free at 14 days” value ([5]; 125 J/cm^2)?
**A.** 50%

**Q.** What about the “tumor free at 14 days” value ([5]; 150 J/cm^2) of the same compound?
**A.** 75%

**Q.** What about the “BPD-MA in the tumor that was active” value ([6]; 3 h) of the same compound?
**A.** 100%

**Q.** And the “BPD-MA in the tumor that was active” value ([6]; 24 h)?
**A.** 39%

**Q.** And the “degradation in livers and kidneys compared with tumors” value [6]?
**A.** Both livers and kidneys degraded BPD-MA more quickly than did the tumors

**Q.** What about the survival of mouse [7] of the same compound?
**A.** alive

**Q.** What about the tumor eradication [7] of the same compound?
**A.** the tumor was eradicated

**Q.** And the tumor palpability [7]?
**A.** The tumor was not palpable

**Q.** Which “duration of photosensitivity (patient warning)” value [8] does the source give for porfimer sodium here?
**A.** six

**Q.** And the “relationship of photosensitivity to injected drug dose” value [8]?
**A.** no apparent relationship of photosensitivity to injected drug dose

**Q.** And the “time of occurrence of skin phototoxicity” value ([9]; iv, 2 mg/kg)?
**A.** ≤ 10 days

**Q.** And the “patients with irritative bladder symptoms” value [9]?
**A.** Five

**Q.** For hematoporphyrin derivative, which “safety of direct injection compared with parenteral injection” value [10] is on record?
**A.** direct injection appeared to be safer than parenteral injection
